Structures are written as SMILES. Entries after “also recorded” stand apart in the source; their conditions may differ.

The test system of experiment [1] is primary patient-derived PDX1535 organoids. Briefly: PDX1535 organoid assay. In kind it is cell-based, human. The method, then: PDX1535 organoids were derived from a patient of pancreatic cancer. Primary patient organoids were established by digesting patient-derived xenografts for 1 hour at 37° C. in RPMI containing 2.5% FBS, 5 mg/ml Collagenase II, and 1.25 mg/ml Dispase II, followed by passage through a […] mesh filter. Cells were plated at a density of 1.5×10^5 cells per 50 μl Matrigel. After domes were solidified, growth medium was added as follows: RPMI containing 50% Wnt3a conditioned media, 10% RSpondin1-conditioned media, 2.5% FBS, 50 ng/ml EGF, 5 mg/ml Insulin, 12.5 ng/ml hydrocortisone, and 14 μM Rho Kinase Inhibitor. After establishment, organoids were passaged and maintained. Briefly, organoids were isolated using Cell Recovery Solution (Corning 354253), then dissociated into single cell suspension with TrypLE Express (ThermoFisher 12604) supplemented with 25 μg/ml DNase I (Roche) and 14 μM Rho Kinase Inhibitor (Y-27632, Sigma). Cells were split 1:2 into 20 μl domes plated on pre-warmed 48-well plates. Domes were incubated at 37° C. for 5 min, then covered with human complete organoid feeding media without Wnt3a-conditioned media. […] The organoids were imaged and measured at the end of treatment. […] Moreover, the anti-cancer effect of JTE-151 was determined in an organoid assay using pancreatic cancer cells derived from mice bearing primary patient-derived xenografts.

In experiment [2] the test system is primary patient-derived organoids. Briefly: compilation of primary patient-derived organoids. In kind it is cell-based, human.
Experiment [3] deals with KP^f/fC organoids. Briefly: KP^f/fC organoid culture assay. The format is cell-based, mouse. The protocol:
Organoids from REM2-KP^f/fC were passaged at ˜1:2 as previously described (Boj et al., 2015). Briefly, organoids were isolated using Cell Recovery Solution (Corning 354253), then dissociated using Accumax Cell Dissociation Solution (Innovative Cell Technologies AM105), and plated in 20 μl matrigel (BD Biosciences, 354230) domes on a pre-warmed 48-well plate. After incubation at 37° C. for 5 min, domes were covered with 300 μl PancreaCult Organoid Growth Media (Stemcell Technologies). […] Organoids were grown in the presence of vehicle or SR2211 for 4 days, then imaged and quantified, n=3 independent wells plated per dose per treatment group.
KP^f/fC organoid were derived from the REM2-KP^f/fC mice, a germline genetically engineered mouse model for pancreatic ductal adenocarcinoma with the genotype of Msi2^eGFP/Kras^LSL-G12D/+; Pdx^CRE/+; p53^f/f. Briefly, tumors from 10-12-week-old end-stage REM2-KP^f/fC mice were harvested and dissociated into a single cell suspension. Tumor cells were stained with FC block then 0.2 μg/10^6 cells anti-EpCAM APC (eBioscience). REM2+/EpCAM+ (stem) and REM2−/EpCAM+ (non-stem) cells were sorted, resuspended in 20 μl Matrigel (BD Biosciences, 354230), and plated as a dome in a pre-warmed 48-well plate. After incubation at 37° C. for 5 min, domes were covered with 300 μl PancreaCult Organoid Growth Media (Stemcell Technologies). Organoids were imaged and quantified 6 days later. All images were acquired on a Zeiss Axiovert 40 CFL. Organoids were counted and measured using ImageJ 1.51s software.
The derived KP^f/fC organoid were maintained and passaged at ˜1:2. Briefly, organoids were isolated using Cell Recovery Solution (Corning 354253), then dissociated using Accumax Cell Dissociation Solution (Innovative Cell Technologies AM105), and plated in 20 μl Matrigel (BD Biosciences, 354230) domes on a pre-warmed 48-well plate. After incubation at 37° C. for 5 min, domes were covered with 300 μl PancreaCult Organoid Growth Media (Stemcell Technologies).
About 4,000 organoids from each of the non-germline and germline mouse models were plated as single cells in multi-well plates, as described above, and treated with JTE-151 for 4 days (FIG. 48). Organoid number and size were analyzed after treatment. […] In the quantification, different doses of JTE-151 were plotted along the horizontal axis, and the volume of organoids was expressed as relative to control along the vertical axis. […] Organoid volume was then analyzed. Different doses of JTE-151 were plotted along the horizontal axis, and the vertical axis represents relative organoid volume to control.

Experiment [4] concerns primary patient-derived PDX1356 organoids. Nature of the experiment: PDX1356 organoid assay. The format is cell-based, human. The method, then:
PDX1535 organoids were derived from a patient of pancreatic cancer. Primary patient organoids were established by digesting patient-derived xenografts for 1 hour at 37° C. in RPMI containing 2.5% FBS, 5 mg/ml Collagenase II, and 1.25 mg/ml Dispase II, followed by passage through a […] mesh filter. Cells were plated at a density of 1.5×10^5 cells per 50 μl Matrigel. After domes were solidified, growth medium was added as follows: RPMI containing 50% Wnt3a conditioned media, 10% RSpondin1-conditioned media, 2.5% FBS, 50 ng/ml EGF, 5 mg/ml Insulin, 12.5 ng/ml hydrocortisone, and 14 μM Rho Kinase Inhibitor. After establishment, organoids were passaged and maintained. Briefly, organoids were isolated using Cell Recovery Solution (Corning 354253), then dissociated into single cell suspension with TrypLE Express (ThermoFisher 12604) supplemented with 25 μg/ml DNase I (Roche) and 14 μM Rho Kinase Inhibitor (Y-27632, Sigma). Cells were split 1:2 into 20 μl domes plated on pre-warmed 48-well plates. Domes were incubated at 37° C. for 5 min, then covered with human complete organoid feeding media without Wnt3a-conditioned media.
As shown in FIGS. 65-66, the anti-cancer effect of JTE-151 was also tested using the organoid assay on primary patient-derived PDX1356 pancreatic cancer cells. […] The volume of organoids was expressed as relative to control.

Setting [5] is: 3 μM AZD-0284 + 0.025 nM gemcitabine.
[6] abbreviates: 6 μM AZD-0284 + 0.025 nM gemcitabine.
[7] abbreviates: 12 μM AZD-0284 + 0.025 nM gemcitabine.

`Cc1ccc(NC(=O)C[C@H](CCC(=O)O)c2noc([C@H]3C[C@@H](CC(C)(C)C)C3)c2C2CC2)c(Cl)c1` [JTE-151, (4S)-6-[(2-chloro-4-methylphenyl)amino]-4-{4-cyclopropyl-5-[cis-3-(2,2-dimethylpropyl)cyclobutyl]isoxazol-3-yl}-6-oxohexanoic acid]: the organoid volume entry is on record as “visibly reduced; also recorded: inhibited” in experiment [1] (3 μM JTE-151 alone (FIG. 63)); “visibly reduced; also recorded: inhibited” in experiment [1] (3 μM JTE-151 and 0.05 nM gemcitabine combination (FIG. 63)); “reduced organoid volume, although not at a statistically significant level” in experiment [3] (JTE-151 at 0.003 μM and 0.03 μM); “visibly reduced; also recorded: inhibited” in experiment [4] (3 μM JTE-151 + 0.05 nM gemcitabine); “visibly reduced; also recorded: inhibited” in experiment [4] (3 μM JTE-151 alone). Also, the organoid growth entry in experiment [1] (JTE-151 alone at 0.3 μM, 1 μM, and 3 μM (FIG. 64)) is “significant inhibition”; in experiment [2] (JTE-151 at 0.3 μM and more so at 3 μM, PDX1356, PDX1535, PDX202, PDX204 (FIG. 68)) it was “significantly inhibited”; in experiment [3] (JTE-151 at 0.3 μM, 3 μM, 6 μM, and 9 μM) it was “significantly inhibited”. In addition, the “organoid growth in volume” value in experiment [4] (0.3 μM JTE-151 + 0.05 nM gemcitabine) and in experiment [4] (0.3 μM JTE-151 alone) was “visibly decreased; also recorded: inhibited” throughout.

For `OC(c1ccc(-c2ccc(CN3CCN(Cc4ccncc4)CC3)cc2)c(F)c1)(C(F)(F)F)C(F)(F)F` [SR2211], the organoid formation result in experiment [3] (SR2211 vs vehicle) is given as “decreased”.

`CC(=O)N1Cc2cc(S(C)(=O)=O)ccc2[C@@H]1C(=O)Nc1ccc(C(O)(C(F)(F)F)C(F)(F)F)cc1` [AZD-0284]: the “decrease in organoid volume compared to control” value was 2.81 fold in experiment [1] (setting [5]); 4.72 fold in experiment [1] (setting [6]); 6.90 fold in experiment [1] (setting [7]); 3.72 fold in experiment [3] (setting [5]); 5.81 fold in experiment [3] (setting [6]); 10.53 fold in experiment [3] (setting [7]). Besides, the organoid volume entry in experiment [1] (3 μM AZD-0284 and 0.04 nM gemcitabine) is given as “significant reduction; also recorded: significant inhibition”; in experiment [1] (AZD-0284 alone, 6 μM or 12 μM (FIG. 37)), “significantly reduced”; in experiment [3] (6 μM AZD-0284 alone) it was “visibly reduced; also recorded: inhibited”; in experiment [3] (6 μM AZD-0284 and 0.025 nM gemcitabine combination), “visibly reduced; also recorded: inhibited”; in experiment [4] (3 μM AZD-0284 + 0.05 nM gemcitabine), “significant reduction; also recorded: effectively inhibited”; in experiment [4] (3 μM AZD-0284 alone), “significant reduction; also recorded: effectively inhibited”. Further, the organoid volume entry in experiment [4] (6 μM AZD-0284 + 0.05 nM gemcitabine) and in experiment [4] (6 μM AZD-0284 alone) was “significant reduction; also recorded: effectively inhibited” each time. For the same compound, the organoid growth entry in experiment [1] (6 μM AZD-0284 alone) is “visibly inhibited”; in experiment [1] (6 μM AZD-0284 in combination with 0.025 nM gemcitabine), “visibly inhibited”; in experiment [2] (AZD-0284 at 3 μM and more so at 6 μM, PDX1356 and PDX1535 (FIG. 40)) it was “significantly inhibited”; in experiment [3] (AZD-0284 alone, 6 μM or 12 μM (FIG. 32)), “significant inhibitory effect”. For the same compound, the “organoid growth in volume” value in experiment [3] (3 μM AZD-0284 in combination with 0.02 nM gemcitabine) was “visibly decreased; also recorded: inhibited”.

For the origin of these results see patent publication US20220202811A1, “TREATMENT FOR RETINOIC ACID RECEPTOR-RELATED ORPHAN RECEPTOR Ɣ (RORƔ)-DEPENDENT CANCERS” (The Regents of the University of California, priority 2019, published 2022).
